Values quoted from earlier work, collected in patent US12251361B2, “Solutions for oral dosage” (LIQMEDS WORLDWIDE LIMITED, priority 2019, dated 2025).

SMILES: CN(C)CCC=C1c2ccccc2CCc2ccccc21.Cl [Amitriptyline HCl, 3-(10,11-dihydro-5H-dibenzo[a,d]cycloheptene-5-ylidene)-N,N-dimethyl-1-propanamine hydrochloride]
- Solubility in water: freely soluble
